# In patent publication US6528286B1, “Mammalian cell culture process for producing glycoproteins” (Genentech, Inc., priority 1998, dated 2003):
# “Also recorded” adds a separate entry of the source. Where two headings read alike, the source gives them in different places.
# Experiments:
# CHO-K1 cells = conditions: copper-supplemented culture medium; cited from earlier work
# [1] = tested on: Cytosolic and membrane-associated sialidase I; conditions: partially purified extracts from rat liver or rat skeletal muscle; cited from earlier work
# HeLa cell = HeLa cell culture medium; cited from earlier work
# [2] = tested on: CHO cells producing TNFR1-IgG1; assay type: cell-based, Chinese hamster; conditions: for SA content on day 9 / SA content on day 12 / Sialic Acid content on day 9 / Sialic Acid content on day 12: TNFR1-IgG1
# Excerpt: The Chinese hamster ovary (CHO)cell line used as the mammalian host cell line was derived from CHO DG44 cells. The gene encoding the soluble type 1 TNFR-IgG1 was introduced into CHO DG44 cells by transfection. This was accomplished using the calcium phosphate technique for introducing DNA into mammalian cells. Clones expressing the TNFR1-IgG1 were amplified in methotrexate yielding high expressing clones and subsequently adapted to serum free medium. These cells were under continuous selective pressure until transferred to nonselective medium for growth and expansion of the inoculum. To provide cells for TNFR1-IgG1 production cultures the cell population described above was expanded from the medium containing methotrexate by serial subcultivations in vessels of increasing volumes to growth medium containing no methotrexate. For these steps of the process the non selective growth medium was DMEM/HAM F-12 based formulation (see, for example, U.S. Pat. No. 5,122,469, herein incorporated by reference in its entirety) with modified concentrations of some components, such as glucose, amino acids, salts, sugar, vitamins glycine, hypoxanthine, and thymidine; recombinant human insulin, hydrolyzed peptone (Protease Peptone 2 or 3, Primatone HS or Primatone RL), a cell protective agent such as Pluronic F68 (pluronic polyol) or the equivalent; Gentamycin; and trace elements. The cultures were controlled at pH 7.2+/−0.4 by the use of CO2 gas (acid) and /or Na2CO3 (base). Temperature was controlled near 37° C. during the growth period. Dissolved oxygen was maintained above 5% of air saturation by direct sparging with air and/or oxygen gas. The growth phase for each culture was followed by a second phase or transition phase wherein culture parameters were changed from growth to production conditions. During this transition phase the temperature of the culture system was decreased, generally to about between 30 and 35° C. and usually about 33° C. Copper chloride was added to the culture medium. Product accumulated during the production phase was analyzed for sialic acid content. […] Sialic acid content was analyzed by the method of Warren, L. (1959) J. Biol. Chem. 234:1971-1975. or the method of Anumula, K. R. (1995) Anal. Biochem. 230:24-30. Glycoprotein production culture was inoculated at 0.2% packed cell volume (PCV). Cells were grown for about 2 days under optimal growth conditions (37° C., low osmolality). When reaching 1% PCV (after about 2 days) the culture conditions were changed from optimal growth to production conditions. This means that growth is slowed under these conditions. This change includes a temperature shift to 33° C. and the addition of a complex feed (a concentrated form of media components). Due to the toxic effects of copper additions higher than 0.2 mM under growth conditions copper additions in the production phase of the glycoprotein production process were investigated. In the process, maximal cell mass was reached after the fifth day in culture. Since significant desialyation occurs after the fifth day in culture and especially significant decrease after about the eighth day in culture (FIG. 1), copper additions of 0.5 and 1.0 mM at day 6 and day 8 of the culture were investigated (FIG. 6). Further experiments were run to test copper additions at other concentrations. 0.38 mM copper was added.
# [3] = tested on: CHO cells producing TNFR1-IgG1; experiment: Incubation of high cell concentration perfusion culture suspension in spinner flasks with CuCl2; assay type: cell-based, Chinese hamster; conditions: 1 mM and 5 mM CuCl2, 24 hours at 33° C.
# Experimental: FIG. 2: Sialic acid (SA) content :of TNFR1-IgG1 after incubation of cell culture suspension taken from a perfusion culture at high cell concentration (6% packed cell volume, 77% viability at start of incubation) compared to starting sialic acid content before incubation. A sample of the perfusion culture was removed and incubated in spinner flasks containing 0, 1 mM and 5 mM CuCl2 for 24 hours at 33° C.
# Sialic acid content was analyzed by the method of Warren, L. (1959) J. Biol. Chem. 234:1971-1975. or the method of Anumula, K. R. (1995) Anal. Biochem. 230:24-30.
# To test the effect of CuCl2 on stabilization of the sialic acid content high cell concentration from a perfusion culture were incubated over night in spinner flasks with the addition 0, 1 and 5 mM CuCl2.
# [4] = tested on: CHO cells producing TNFR1-IgG1; experiment: Impact of CuCl2 on growth and viability of CHO cells under growth conditions; assay type: cell-based, Chinese hamster
# Experimental: CuCl2 was added to the culture medium before inoculation with cells at concentrations from 0 to 3.2 mM. Inhibition of growth could be detected above 0.2 mM.
# CuCl2 was added to the culture medium before inoculation with cells at concentrations from 0-3.2 mM. A toxic effect could be observed at concentrations above 0.2 mM. Concentrations above 0.4 mM lead to rapid cell death.
# Since heavy metals such as copper are toxic the effects of CuCl2 concentrations from 0-5 mM on growth and viability of CHO cells at 37° C. and 33° C. incubation temperature producing a glycoprotein were investigated(FIGS. 3, 4 and 5). Toxic effects and growth inhibition could be detected above 0.2 mM CuCl2.
# [5] = 0.5 and 1.0 mM CuCl2 added in production phase
# [6] = copper 0.38 mM added on day 6, Table III
# [7] = copper 0.5 mM added on day 6, Table II
# [8] = copper 0.5 mM added on day 6, Table III
# [9] = copper 0.5 mM added on day 8, Table II
# [10] = copper 1.0 mM added on day 6, Table II
# [11] = copper 1.0 mM added on day 8, Table II
structure (smiles),measurement,setting,value
[Cu+2] [Cu^2+],LD50,CHO-K1 cells,126 µM
same,Copper ion concentration at which sialidase I was inhibited,[1],approximately 1 mM
same,Copper ion concentrations that did not interfere with cell growth,HeLa cell,1-100 μm
[Cl][Cu][Cl] [CuCl2],Culture performance and productivity,[2]; [5],good culture performance and productivity
same,Sialic acid content in production cultures,[2]; [5],stabilized
same,SA content on day 9,[2]; [6],5.5 mol/mol
same,SA content on day 12,[2]; [6],4.9 mol/mol
same,Sialic Acid content on day 9,[2]; [7],5.3 mol/mol
same,Sialic Acid content on day 12,[2]; [7],4.9 mol/mol
same,SA content on day 9,[2]; [8],5.3 mol/mol
same,SA content on day 12,[2]; [8],5.0 mol/mol
same,Sialic Acid content on day 9,[2]; [9],5.0 mol/mol
same,Sialic Acid content on day 12,[2]; [9],5.0 mol/mol
same,Sialic Acid content on day 9,[2]; [10],5.0 mol/mol
same,Sialic Acid content on day 12,[2]; [10],5.0 mol/mol
same,Sialic Acid content on day 9,[2]; [11],5.0 mol/mol
same,Sialic Acid content on day 12,[2]; [11],5.0 mol/mol
same,Product concentr. on day 9,[2]; [6],324 mg/L
same,Product concentr. on day 12,[2]; [6],518 mg/L
same,Product concentr. on day 9,[2]; [7],230 mg/L
same,Product concentr. on day 12,[2]; [7],304 mg/L
same,Product concentr. on day 9,[2]; [8],350 mg/L
same,Product concentr. on day 12,[2]; [8],545 mg/L
same,Product concentr. on day 9,[2]; [9],244 mg/L
same,Product concentr. on day 12,[2]; [9],417 mg/L
same,Product concentr. on day 9,[2]; [10],218 mg/L
same,Product concentr. on day 12,[2]; [10],286 mg/L
same,Product concentr. on day 9,[2]; [11],289 mg/L
same,Product concentr. on day 12,[2]; [11],371 mg/L
same,Stabilization of sialic acid content of TNFR1-IgG1,[3],effective in stabilizing the sialic acid content in a dose dependent manner; also recorded: effective in stabilizing the SA content in a dose dependent manner
same,Toxic effect at 37 versus 33° C. incubation temperature,[4]; 0-5 mM CuCl2,very similar for 37 °C and 33 °C
same,CuCl2 concentration above which inhibition of growth could be detected,"[4]; added before inoculation, 0 to 3.2 mM (0-5 mM)",above 0.2 mM
same,Copper concentration above which cell death results,[4]; conditions normally associated with cell growth,above 0.4 mM
same,CuCl2 concentration above which a toxic effect on viability could be observed,"[4]; growth conditions, added before inoculation",above 0.2 mM
